From the supplement of paper PMC13380429

Columns and labels:
[1] = test system: A549-ACE2; assay: phospholipidosis EC50; higher = less potent phospholipidosis inducer
[2] = test system: A549-ACE2 infected with SARS-CoV-2; assay: cell count relative to DMSO; higher = less toxic; details: 24 h
[3] = test system: A549-ACE2; assay: drug-induced phospholipidosis relative to tamoxifen; higher = more phospholipidosis
[4] = test system: A549-ACE2 infected with SARS-CoV-2; assay: SARS-CoV-2 infection rate relative to DMSO; higher = more infection; details: 24 h
[5] = test system: HepG2; assay: relative viability EC50 (midpoint between 100% and the lowest measured viability); higher = less toxic; details: 72 h
[6] = test system: Calu-3; assay: as above; details: 72 h
[7] = test system: Vero E6; assay: as above; details: 72 h
[8] = test system: U2OS; assay: as above; details: 72 h
[9] = test system: HepG2; assay: drug sensitivity score (DSS) for viability; higher = more toxic; extreme values may be limits of the assay; details: 72 h
[10] = test system: Calu-3; assay: as above; details: 72 h
[11] = test system: Vero E6; assay: as above; details: 72 h
[12] = test system: U2OS; assay: as above; details: 72 h
[13] = test system: Caco-2; assay: as above; details: 72 h
[14] = test system: A549-ACE2 infected with SARS-CoV-2; assay: morphology score (similarity to uninfected cells); higher = more like uninfected cells; details: 24 h
[15] = test system: HepG2; assay: cell viability relative to DMSO; higher = less toxic; details: 72 h
[16] = test system: Calu-3; assay: as above; details: 72 h
[17] = test system: Vero E6; assay: as above; details: 72 h
[18] = test system: U2OS; assay: as above; details: 72 h
[19] = test system: Caco-2; assay: as above; details: 72 h
[20] = test system: Caco-2; assay: relative viability EC50 (midpoint between 100% and the lowest measured viability); higher = less toxic; details: 72 h

CCN(CC)CCOc1ccc(/C(=C(\Cl)c2ccccc2)c2ccccc2)cc1 [clomifene]
Details	SARS-CoV-2 infection rate [%]	cell count [%]	cell viability [%]	morphology score	phospholipidosis EC50 [µM]
[1], 24 h	–	–	–	–	0.972
[1], 48 h	–	–	–	–	3
[1], 72 h	–	–	–	–	4.75
[2], 0.1 µM	–	101	–	–	–
[2], 0.3 µM	–	106	–	–	–
[2], 1 µM	–	113	–	–	–
[2], 3 µM	–	117	–	–	–
[4], 0.1 µM	102	–	–	–	–
[4], 0.3 µM	84	–	–	–	–
[4], 1 µM	75	–	–	–	–
[4], 3 µM	31	–	–	–	–
[14], 0.1 µM	–	–	–	-0.09	–
[14], 0.3 µM	–	–	–	0.35	–
[14], 1 µM	–	–	–	0.5	–
[14], 3 µM	–	–	–	0.8	–
[15], 1 nM	–	–	90.5	–	–
[15], 10 nM	–	–	89.9	–	–
[15], 100 nM	–	–	105	–	–
[15], 1000 nM	–	–	96	–	–
[15], 10000 nM	–	–	26.5	–	–
[16], 1 nM	–	–	100	–	–
[16], 10 nM	–	–	101	–	–
[16], 100 nM	–	–	102	–	–
[16], 1000 nM	–	–	90.4	–	–
[16], 10000 nM	–	–	10.8	–	–
[17], 1 nM	–	–	94.7	–	–
[17], 10 nM	–	–	95.5	–	–
[17], 100 nM	–	–	91.9	–	–
[17], 1000 nM	–	–	101	–	–
[17], 10000 nM	–	–	77.4	–	–
[18], 1 nM	–	–	96.1	–	–
[18], 10 nM	–	–	99.4	–	–
[18], 100 nM	–	–	96.3	–	–
[18], 1000 nM	–	–	103	–	–
[18], 10000 nM	–	–	79.3	–	–
[19], 1 nM	–	–	84.4	–	–
[19], 10 nM	–	–	100	–	–
[19], 100 nM	–	–	99.1	–	–
[19], 1000 nM	–	–	96.4	–	–
[19], 10000 nM	–	–	61.1	–	–

drug-induced phospholipidosis [%], [3]
Details	0.3 µM	0.833333 µM	3.33333 µM	6.66667 µM	10 µM	30 µM
24 h	9.43	34.4	86	104	115	47.6
48 h	7.92	29.7	72.8	101	120	–
72 h	9.07	23.5	62.7	94.3	144	–

Details	drug sensitivity score	relative viability EC50 [µM]
[5]	–	2.75
[6]	–	2.27
[7]	–	> 10
[8]	–	> 10
[9]	4.6	–
[10]	6.5	–
[11]	0.7	–
[12]	0.5	–
[13]	2.5	–

CN1CCCN(C(c2ccccc2)c2ccc(Cl)cc2)CC1 (stereo not drawn) [homochlorcyclizine]
Details	SARS-CoV-2 infection rate [%]	cell count [%]	cell viability [%]	morphology score	phospholipidosis EC50 [µM]
[1], 24 h	–	–	–	–	6.4
[1], 48 h	–	–	–	–	7.14
[1], 72 h	–	–	–	–	10.5
[2], 0.3 µM	–	102	–	–	–
[2], 3 µM	–	117	–	–	–
[2], 10 µM	–	113	–	–	–
[2], 30 µM	–	95	–	–	–
[4], 0.3 µM	97	–	–	–	–
[4], 3 µM	51	–	–	–	–
[4], 10 µM	20	–	–	–	–
[4], 30 µM	19	–	–	–	–
[14], 0.3 µM	–	–	–	0.01	–
[14], 3 µM	–	–	–	0.71	–
[14], 10 µM	–	–	–	0.84	–
[14], 30 µM	–	–	–	0.53	–
[15], 1 nM	–	–	98.7	–	–
[15], 10 nM	–	–	103	–	–
[15], 100 nM	–	–	104	–	–
[15], 1000 nM	–	–	108	–	–
[15], 10000 nM	–	–	79.6	–	–
[16], 1 nM	–	–	96.8	–	–
[16], 10 nM	–	–	94.3	–	–
[16], 100 nM	–	–	100	–	–
[16], 1000 nM	–	–	102	–	–
[16], 10000 nM	–	–	99.3	–	–
[17], 1 nM	–	–	97.9	–	–
[17], 10 nM	–	–	99.5	–	–
[17], 100 nM	–	–	95.2	–	–
[17], 1000 nM	–	–	96.4	–	–
[17], 10000 nM	–	–	102	–	–
[18], 1 nM	–	–	99.8	–	–
[18], 10 nM	–	–	95.7	–	–
[18], 100 nM	–	–	104	–	–
[18], 1000 nM	–	–	99.2	–	–
[18], 10000 nM	–	–	97.1	–	–
[19], 1 nM	–	–	97.5	–	–
[19], 10 nM	–	–	94.7	–	–
[19], 100 nM	–	–	90.5	–	–
[19], 1000 nM	–	–	99.6	–	–
[19], 10000 nM	–	–	101	–	–

drug-induced phospholipidosis [%], [3]
Details	0.3 µM	0.833333 µM	3.33333 µM	6.66667 µM	10 µM	30 µM
24 h	1.65	3.27	20.6	54.6	81	102
48 h	3.21	3.5	22.2	49.2	82.5	107
72 h	7.01	3.95	24.7	47.4	80.1	134

Details	drug sensitivity score	relative viability EC50 [µM]
[5]	–	> 10
[6]	–	> 10
[7]	–	> 10
[8]	–	> 10
[9]	0.4	–
[10]	0	–
[11]	0	–
[12]	0	–
[13]	0	–
[20]	–	> 10
